Our source for the IC50 values is patent publication US10189854B2, “Substituted pyrimidine compounds” (Grünenthal GmbH, priority 2014, dated 2019).

Chain of human PDE4B1 (Q07343 whole entry): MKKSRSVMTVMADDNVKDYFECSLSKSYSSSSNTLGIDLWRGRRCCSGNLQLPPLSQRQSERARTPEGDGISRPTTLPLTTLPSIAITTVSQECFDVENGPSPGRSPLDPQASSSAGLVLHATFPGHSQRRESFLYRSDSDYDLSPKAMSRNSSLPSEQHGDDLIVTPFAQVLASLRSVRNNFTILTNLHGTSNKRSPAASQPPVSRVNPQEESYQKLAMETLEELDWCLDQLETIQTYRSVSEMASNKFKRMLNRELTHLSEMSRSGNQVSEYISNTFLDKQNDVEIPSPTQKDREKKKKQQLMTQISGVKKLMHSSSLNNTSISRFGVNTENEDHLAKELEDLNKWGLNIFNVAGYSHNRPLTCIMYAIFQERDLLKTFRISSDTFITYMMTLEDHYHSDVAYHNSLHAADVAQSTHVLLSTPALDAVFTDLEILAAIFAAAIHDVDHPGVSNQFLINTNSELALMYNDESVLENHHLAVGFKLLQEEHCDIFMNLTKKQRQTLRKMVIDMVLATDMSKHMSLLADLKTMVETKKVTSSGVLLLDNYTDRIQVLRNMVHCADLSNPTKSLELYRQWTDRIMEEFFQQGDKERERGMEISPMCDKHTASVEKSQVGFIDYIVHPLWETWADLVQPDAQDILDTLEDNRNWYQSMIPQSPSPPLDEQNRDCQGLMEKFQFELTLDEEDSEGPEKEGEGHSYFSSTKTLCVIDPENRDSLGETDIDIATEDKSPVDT

The assay has as its target human PDE4B1 (Homo sapiens (Human), UniProt Q07343). Kind of assay: TR-FRET assay using the LANCE Ultra cAMP kit to determine the activity of hPDE4B1. Format: biochemical. Particulars: IC50 inhibition of PDE4B, mean. An excerpt: TR-FRET Assay Using the LANCE® Ultra cAMP Kit to Determine the Activity of hPDE4B1
The effects of the compounds on the activity of the human PDE4B1 was quantified by measuring the production of 5′AMP from cAMP using a human recombinant enzyme expressed in Sf9 cells and the LANCE® Ultra cAMP kit, a TR-FRET detection method from PerkinElmer. The human PDE4B1 enzyme was purchased from SignalChem Lifesciences (Catalog# P92-31BG, Lot# H296-2).
The test compound, reference compound or water (control) was mixed with the enzyme (0.96 U) in a reaction buffer containing 50 mM Tris-HCl, 50 mM MgCl2 and 5 mM DTT (pH 8.5). Thereafter, the reaction was initiated by addition of 500 nM cAMP (substrate) and the mixture was incubated for 30 minutes at room temperature. For control basal measurements, the enzyme was omitted from the reaction mixture. After 30 minutes, the reaction was stopped and diluted by a factor of 100 with the reaction buffer supplemented with 500 μM IBMX. The fluorescence donor (europium chelate-labeled cAMP) and the fluorescence acceptor (anti-cAMP antibody labeled with the ULight™ dye) were then added together with 500 μM IBMX to a 10 μl aliquot. After 60 minutes, the fluorescence transfer corresponding to the amount of residual cAMP was measured at λex=337 nm, λem=620 nm and λem=665 nm using a microplate reader (PHERAstar, BMG). The enzyme activity was determined by dividing the signal measured at 665 nm by that measured at 620 nm (ratio) multiplied by 10000. The results were expressed as percent inhibition of the control enzyme activity. IC50 values (IC50=concentration causing a half-maximal inhibition of control specific activity) were derived from dose response measurements with ten different concentrations (n=3; N=1-3).
Several compounds according to the invention are tested with above mentioned assay.
In the case of `CN(CCO)C(=O)c1ccc2c(c1)N(c1ncc(-c3cc(C4(O)CC4)ccc3F)cn1)CC21CC1` [Compound 363, 1-[5-[2-Fluoro-5-(1-hydroxy-cyclopropyl)-phenyl]-pyrimidin-2-yl]-N-(2-hydroxy-ethyl)-N-methyl-spiro[1,2-dihydro-indole-3,1′-cyclopropane]-6-carboxylic acid amide], the IC50 is < 0.1 µM. As to `Cc1ccnc(-c2cnc(N3CC4(CC4)c4ccc(C(=O)N5CCNC(=O)C5)cc43)nc2)c1` [Compound 222, 4-[1-[5-(4-Methyl-pyridin-2-yl)-pyrimidin-2-yl]-spiro[1,2-dihydro-indole-3,1′-cyclopropane]-6-carbonyl]-piperazin-2-one], the IC50 is < 0.1 µM. Then `CN(CCO)C(=O)c1ccc2c(c1)N(c1ncc(-c3cccc(Cl)c3)cn1)CC21CC1` [Compound 273, 1-[5-(3-Chlorophenyl)-pyrimidin-2-yl]-N-(2-hydroxy-ethyl)-N-methyl-spiro[1,2-dihydro-indole-3,1′-cyclopropane]-6-carboxylic acid amide], with < 0.1 µM. Then `Cc1ccc(F)c(-c2cnc(N3CC4(CC4)c4ccc(C(=O)N(C)CCO)cc43)nc2)c1` [Compound 227, 1-[5-(2-Fluoro-5-methyl-phenyl)-pyrimidin-2-yl]-N-(2-hydroxy-ethyl)-N-methyl-spiro[1,2-dihydro-indole-3,1′-cyclopropane]-6-carboxylic acid amide], with < 0.1 µM; and `CN(CCO)C(=O)c1ccc2c(c1)N(c1ncc(-c3cc(N(C)C)ccn3)cn1)CC21CC1` [Compound 272, 1-[5-(4-Dimethylamino-pyridin-2-yl)-pyrimidin-2-yl]-N-(2-hydroxy-ethyl)-N-methyl-spiro[1,2-dihydro-indole-3,1′-cyclopropane]-6-carboxylic acid amide], with < 0.1 µM; and `CC(C)(O)c1ccnc(-c2cnc(N3CC4(CC4)c4ccc(C(=O)N5CCOCC5)cc43)nc2)c1` [Compound 294, [1-[5-[4-(1-Hydroxy-1-methyl-ethyl)-pyridin-2-yl]-pyrimidin-2-yl]-spiro[1,2-dihydro-indole-3,1′-cyclopropane]-6-yl]-morpholin-4-yl-methanone], with < 0.1 µM. Then `CCc1nc(-c2cnc(N3CC4(CC4)c4ccc(C(=O)N(C)CCO)cc43)nc2)cs1` [Compound 325, 1-[5-(2-Ethyl-thiazol-4-yl)-pyrimidin-2-yl]-N-(2-hydroxy-ethyl)-N-methyl-spiro[1,2-dihydro-indole-3,1′-cyclopropane]-6-carboxylic acid amide], with < 0.1 µM; and `CN(CCO)C(=O)c1ccc2c(c1)N(c1ncc(-c3cc(F)ccn3)cn1)CC21CC1` [Compound 233, 1-[5-(4-Fluoro-pyridin-2-yl)-pyrimidin-2-yl]-N-(2-hydroxy-ethyl)-N-methyl-spiro[1,2-dihydro-indole-3,1′-cyclopropane]-6-carboxylic acid amide], with < 0.1 µM; and `CN(CCO)C(=O)c1ccc2c(c1)N(c1ncc(-c3cc(F)ccc3F)cn1)CC21CC1` [Compound 364, 1-[5-(2,5-Difluoro-phenyl)-pyrimidin-2-yl]-N-(2-hydroxy-ethyl)-N-methyl-spiro[1,2-dihydro-indole-3,1′-cyclopropane]-6-carboxylic acid amide], with < 0.1 µM.

As to `CCc1ccnc(-c2cnc(N3CC4(CC4)c4ccc(C(=O)N5CCNC(=O)C5)cc43)nc2)c1` [Compound 243, 4-[1-[5-(4-Ethyl-pyridin-2-yl)-pyrimidin-2-yl]-spiro[1,2-dihydro-indole-3,1′-cyclopropane]-6-carbonyl]-piperazin-2-one], the IC50 is < 0.1 µM. As to `CN(CCO)C(=O)c1ccc2c(c1)N(c1ncc(-c3nc(CCO)cs3)cn1)CC21CC1` [Compound 339, N-(2-Hydroxy-ethyl)-1-[5-[4-(2-hydroxy-ethyl)-thiaozl-2-yl]-pyrimidin-2-yl]-N-methyl-spiro[1,2-dihydro-indole-3,1′-cyclopropane]-6-carboxylic acid amide], the IC50 was < 0.1 µM. On to `CN(CCO)C(=O)c1ccc2c(c1)N(c1ncc(-c3cc(S(C)(=O)=O)ccc3F)cn1)CC21CC1` [Compound 296, 1-[5-(2-Fluoro-5-methylsulfonyl-phenyl)-pyrimidin-2-yl]-N-(2-hydroxy-ethyl)-N-methyl-spiro[1,2-dihydro-indole-3,1′-cyclopropane]-6-carboxylic acid amide], for which the IC50 was < 0.1 µM. With `CCc1ccnc(-c2cnc(N3CC4(CC4)c4ccc(C(=O)N(C)CCO)cc43)nc2)c1` [Compound 241, 1-[5-(4-Ethyl-pyridin-2-yl)-pyrimidin-2-yl]-N-(2-hydroxy-ethyl)-N-methyl-spiro[1,2-dihydro-indole-3,1′-cyclopropane]-6-carboxylic acid amide], the IC50 was < 0.1 µM. Then `O=C(c1ccc2c(c1)N(c1ncc(-c3cccc(O)c3)cn1)CC21CC1)N1CC2CC1CN2` (centres unmarked) [Compound 250, (2,5-Diazabicyclo[2.2.1]heptan-2-yl)-[1-[5-(3-hydroxyphenyl)-pyrimidin-2-yl]-spiro[1,2-dihydro-indole-3,1′-cyclopropane]-6-yl]-methanone], with < 0.1 µM; and `O=C(c1ccc2c(c1)N(c1ncc(-c3ccccc3F)cn1)CC21CC1)N1CCO[C@@H](CO)C1` [Compound 362, [1-[5-(2-Fluorophenyl)-pyrimidin-2-yl]-spiro[1,2-dihydro-indole-3,1′-cyclopropane]-6-yl]-[(2R)-2-(hydroxymethyl)-morpholin-4-yl]-methanone], with < 0.1 µM. The value for `CC(O)c1ccc(F)c(-c2cnc(N3CC4(CC4)c4ccc(C(=O)N(C)CCO)cc43)nc2)c1` (centres unmarked) [Compound 312, 1-[5-[2-Fluoro-5-(1-hydroxy-ethyl)-phenyl]-pyrimidin-2-yl]-N-(2-hydroxy-ethyl)-N-methyl-spiro[1,2-dihydro-indole-3,1′-cyclopropane]-6-carboxylic acid amide] was < 0.1 µM. Then `O=C(c1ccc2c(c1)N(c1ncc(-c3ccccc3F)cn1)CC21CC1)N1C[C@H]2C[C@@H]1CN2` [Compound 220, [(1R,4R)-2,5-Diazabicyclo[2.2.1]heptan-2-yl]-[1-[5-(2-fluorophenyl)-pyrimidin-2-yl]spiro[1,2-dihydro-indole-3,1′-cyclopropane]-6-yl]-methanone], with 0.1 to 1 µM; and `C[S+]([O-])c1ccnc(-c2cnc(N3CC4(CC4)c4ccc(C(=O)N5CCOCC5)cc43)nc2)c1` (centres unmarked) [Compound 344, (1′-(5-(4-(methylsulfinyl)pyridin-2-yl)pyrimidin-2-yl)spiro[cyclopropane-1,3′-indolin]-6′-yl)(morpholino)methanone], with < 0.1 µM.

With `O=C1CN(C(=O)c2ccc3c(c2)N(c2ncc(-c4cc(O)ccn4)cn2)CC32CC2)CCN1` [Compound 265, 4-[1-[5-(4-Hydroxy-pyridin-2-yl)-pyrimidin-2-yl]-spiro[1,2-dihydro-indole-3,1′-cyclopropane]-6-carbonyl]-piperazin-2-one], the IC50 is < 0.1 µM. Turning to `CN(CCO)C(=O)c1ccc2c(c1)N(c1ncc(-c3cccc(O)c3)cn1)CC21CC1` [Compound 264, N-(2-Hydroxy-ethyl)-1-[5-(3-hydroxyphenyl)-pyrimidin-2-yl]-N-methyl-spiro[1,2-dihydro-indole-3,1′-cyclopropane]-6-carboxylic acid amide], the IC50 is < 0.1 µM.
